How the values were obtained:
Assay type in all cases: in vivo
[1] = tested on: goosegrass (Eleusine indica); test: Test C postemergence, goosegrass; details: visual injury, 0 to 100 scale (0 no effect, 100 complete control)
Procedure, shortened: (§1)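 Plants grown in a sand and loam soil blend received the formulated test chemicals either as a preemergence soil-directed spray or postemergence at 2 to 10 cm height. After 10 or 12 greenhouse days, injury was assessed visually, with 100 meaning complete control.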

[2] = tested on: oat, wild (wild oat, Avena fatua); test: Test C preemergence, wild oat; details: 0 is no effect, 100 is complete control
Procedure, shortened: as §1

[3] = tested on: wheat (Triticum aestivum); test: Test C postemergence, wheat; details: visual injury, 0 to 100 scale (0 no effect, 100 complete control)
Procedure, shortened: as §1

[4] = tested on: ducksalad (Heteranthera limosa); test: Test D flooded paddy test, ducksalad; set-up: key: 0 = no effect, 100 = complete control; details: 250 g ai/ha, Flood; applied to paddy water at 2-leaf stage; visual rating after 13 days; scale 0 (no effect) to 100 (complete control)
Procedure, shortened: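 2-leaf plants; flood 3 cm over soil; cpd into paddy water; depth maintained; greenhouse 13 d; visual rating vs controls, 0 = no effect, 100 = complete control; dash = no result.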

[5] = tested on: galium (catchweed bedstraw, Galium aparine); test: Test C postemergence, galium; details: visual injury, 0 to 100 scale (0 no effect, 100 complete control)
[6] = tested on: oat, wild (wild oat, Avena fatua); test: Test C postemergence, wild oat; details: visual injury, 0 to 100 scale (0 no effect, 100 complete control)
[7] = tested on: ryegrass, Italian (Italian ryegrass, Lolium multiflorum); test: Test C preemergence, Italian ryegrass; details: 0 is no effect, 100 is complete control
Procedure, shortened: as §1

[8] = tested on: blackgrass (Alopecurus myosuroides); test: Test C postemergence, blackgrass; details: visual injury, 0 to 100 scale (0 no effect, 100 complete control)
Procedure, shortened: as §1

C#CC(C)OC1CCN(c2cc(NS(=O)(=O)C(F)(F)F)c(C)cc2C)C1=O (stereo not drawn) [Compound 58] was tested. Which “Goosegrass plant response rating” value ([1]; 31 g ai/ha Postemergence) did it give?
The value was 100.

And the “Goosegrass plant response rating” value ([1]; 125 g ai/ha Postemergence)?
Its value is 100.

And the “Plant response rating (0 to 100 scale), Oat, Wild” value ([2]; 31 g ai/ha Preemergence)?
The value was 90.

And the “Plant response rating (0 to 100 scale), Oat, Wild” value ([2]; 125 g ai/ha Preemergence)?
Its value is 100.

And the “Wheat plant response rating” value ([3]; 31 g ai/ha Postemergence)?
The value was 70.

And the “Wheat plant response rating” value ([3]; 125 g ai/ha Postemergence)?
Its value is 70.

What about the “Plant response rating, Ducksalad” value [4] of the same molecule?
Its value is 80.

And the “Galium plant response rating” value ([5]; 31 g ai/ha Postemergence)?
Its value is 90.

And the “Galium plant response rating” value ([5]; 125 g ai/ha Postemergence)?
The value was 90.

What about the “Oat, Wild plant response rating” value ([6]; 31 g ai/ha Postemergence) of the same molecule?
The value was 60.

What about the “Oat, Wild plant response rating” value ([6]; 125 g ai/ha Postemergence) of the same molecule?
Its value is 90.

What about the “Plant response rating (0 to 100 scale), Ryegrass, Italian” value (“Plant response rating … Italian” below) ([7]; 31 g ai/ha Preemergence) of the same molecule?
Its value is 90.

What about the “Plant response rating … Italian” value ([7]; 125 g ai/ha Preemergence) of the same molecule?
The value was 100.

And the “Blackgrass plant response rating” value ([8]; 31 g ai/ha Postemergence)?
Its value is 50.

What about the “Blackgrass plant response rating” value ([8]; 125 g ai/ha Postemergence) of the same molecule?
The value was 70.

Which “Goosegrass plant response rating” value ([1]; 31 g ai/ha Postemergence) does the source give for C=C(C)COC1CCN(c2cc(NS(=O)(=O)C(F)(F)F)c(C)cc2C)C1=O (stereo not drawn) [Compound 59] here?
The value was 70.

And the “Goosegrass plant response rating” value ([1]; 125 g ai/ha Postemergence)?
Its value is 90.

What about the “Plant response rating (0 to 100 scale), Oat, Wild” value ([2]; 31 g ai/ha Preemergence) of the same molecule?
Its value is 80.

And the “Plant response rating (0 to 100 scale), Oat, Wild” value ([2]; 125 g ai/ha Preemergence)?
Its value is 100.

What about the “Wheat plant response rating” value ([3]; 31 g ai/ha Postemergence) of the same molecule?
The value was 50.

And the “Wheat plant response rating” value ([3]; 125 g ai/ha Postemergence)?
The value was 80.

And the “Plant response rating, Ducksalad” value [4]?
The value was 80.

What about the “Galium plant response rating” value ([5]; 31 g ai/ha Postemergence) of the same molecule?
Its value is 100.

And the “Galium plant response rating” value ([5]; 125 g ai/ha Postemergence)?
Its value is 100.

What about the “Oat, Wild plant response rating” value ([6]; 31 g ai/ha Postemergence) of the same molecule?
Its value is 30.

And the “Oat, Wild plant response rating” value ([6]; 125 g ai/ha Postemergence)?
Its value is 90.

What about the “Plant response rating … Italian” value ([7]; 31 g ai/ha Preemergence) of the same molecule?
Its value is 30.

What about the “Plant response rating … Italian” value ([7]; 125 g ai/ha Preemergence) of the same molecule?
Its value is 100.

What about the “Blackgrass plant response rating” value ([8]; 31 g ai/ha Postemergence) of the same molecule?
The value was 10.

What about the “Blackgrass plant response rating” value ([8]; 125 g ai/ha Postemergence) of the same molecule?
The value was 80.

What does the source list for CC#CCOC1CCN(c2cc(NS(=O)(=O)C(F)(F)F)c(C)cc2C)C1=O (stereo not drawn) [Compound 60]?
Goosegrass plant response rating ([1]; 31 g ai/ha Postemergence): 80; Goosegrass plant response rating ([1]; 125 g ai/ha Postemergence): 90; Plant response rating (0 to 100 scale), Oat, Wild ([2]; 31 g ai/ha Preemergence): 90; Plant response rating (0 to 100 scale), Oat, Wild ([2]; 125 g ai/ha Preemergence): 100; Wheat plant response rating ([3]; 31 g ai/ha Postemergence): 80; Wheat plant response rating ([3]; 125 g ai/ha Postemergence): 90; Plant response rating, Ducksalad [4]: 90; Galium plant response rating ([5]; 31 g ai/ha Postemergence): 100; Galium plant response rating ([5]; 125 g ai/ha Postemergence): 100; Oat, Wild plant response rating ([6]; 31 g ai/ha Postemergence): 30; Oat, Wild plant response rating ([6]; 125 g ai/ha Postemergence): 90; Plant response rating (0 to 100 scale), Ryegrass, Italian ([7]; 31 g ai/ha Preemergence): 70; Plant response rating (0 to 100 scale), Ryegrass, Italian ([7]; 125 g ai/ha Preemergence): 100; Blackgrass plant response rating ([8]; 31 g ai/ha Postemergence): 50; Blackgrass plant response rating ([8]; 125 g ai/ha Postemergence): 90

Which results are given for Cc1c(NS(=O)(=O)C(F)(F)F)cc(N2CCC(OCC3CC3)C2=O)c(C)c1F (stereo not drawn) [Compound 63]?
Goosegrass plant response rating ([1]; 31 g ai/ha Postemergence): 0; Goosegrass plant response rating ([1]; 125 g ai/ha Postemergence): 90; Plant response rating (0 to 100 scale), Oat, Wild ([2]; 31 g ai/ha Preemergence): 70; Plant response rating (0 to 100 scale), Oat, Wild ([2]; 125 g ai/ha Preemergence): 100; Wheat plant response rating ([3]; 31 g ai/ha Postemergence): 10; Wheat plant response rating ([3]; 125 g ai/ha Postemergence): 40; Plant response rating, Ducksalad [4]: 95; Galium plant response rating ([5]; 31 g ai/ha Postemergence): 100; Galium plant response rating ([5]; 125 g ai/ha Postemergence): 100; Oat, Wild plant response rating ([6]; 31 g ai/ha Postemergence): 0; Oat, Wild plant response rating ([6]; 125 g ai/ha Postemergence): 40; Plant response rating (0 to 100 scale), Ryegrass, Italian ([7]; 31 g ai/ha Preemergence): 50; Plant response rating (0 to 100 scale), Ryegrass, Italian ([7]; 125 g ai/ha Preemergence): 100; Blackgrass plant response rating ([8]; 31 g ai/ha Postemergence): 0; Blackgrass plant response rating ([8]; 125 g ai/ha Postemergence): 30

Cc1c(NS(=O)(=O)C(F)(F)F)cc(N2CCC(OCC3CCC3)C2=O)c(C)c1F (stereo not drawn) [Compound 64] was tested. Which “Goosegrass plant response rating” value ([1]; 31 g ai/ha Postemergence) did it give?
The value was 30.

And the “Goosegrass plant response rating” value ([1]; 125 g ai/ha Postemergence)?
Its value is 70.

What about the “Plant response rating (0 to 100 scale), Oat, Wild” value ([2]; 31 g ai/ha Preemergence) of the same molecule?
The value was 20.

And the “Plant response rating (0 to 100 scale), Oat, Wild” value ([2]; 125 g ai/ha Preemergence)?
The value was 90.

And the “Wheat plant response rating” value ([3]; 31 g ai/ha Postemergence)?
The value was 0.

What about the “Wheat plant response rating” value ([3]; 125 g ai/ha Postemergence) of the same molecule?
Its value is 20.

What about the “Plant response rating, Ducksalad” value [4] of the same molecule?
Its value is 80.

What about the “Galium plant response rating” value ([5]; 31 g ai/ha Postemergence) of the same molecule?
Its value is 100.

And the “Galium plant response rating” value ([5]; 125 g ai/ha Postemergence)?
Its value is 100.

What about the “Oat, Wild plant response rating” value ([6]; 31 g ai/ha Postemergence) of the same molecule?
Its value is 0.

And the “Oat, Wild plant response rating” value ([6]; 125 g ai/ha Postemergence)?
Its value is 10.

And the “Plant response rating … Italian” value ([7]; 31 g ai/ha Preemergence)?
Its value is 50.

What about the “Plant response rating … Italian” value ([7]; 125 g ai/ha Preemergence) of the same molecule?
Its value is 90.

And the “Blackgrass plant response rating” value ([8]; 31 g ai/ha Postemergence)?
The value was 0.

What about the “Blackgrass plant response rating” value ([8]; 125 g ai/ha Postemergence) of the same molecule?
The value was 20.

Source: patent US20240158348A1, “HERBICIDAL CYCLIC AMIDES N-SUBSTITUTED WITH A HALOALKYLSULFONYLANILIDE GROUP” (FMC Corporation, priority 2021, published 2024)
